4 molecules from patent US11590117B2, “Treatment of a hematologic malignancy with 2-(4-chlorophenyl)-n-((2-(2,6-dioxopiperidin-3-yl)-1-oxoisoindolin-5-yl)methyl)-2,2-difluoroacetamide” (priority 2016, dated 2023) can be followed below.

The nature of data set [1]: Dynamic vapor sorption (DVS) analysis. It is filed as physicochemical. As to conditions: relative humidity increased from about 0% to about 90% RH. The protocol:
In certain embodiments, Form A is characterized by dynamic vapor sorption analysis. […] In certain embodiments, Form A comprises less than 0.1% water as determined in a coulometric Karl Fischer (KF) titrator equipped with an oven sample processor set at 225° C.
In certain embodiments, Form B is characterized by dynamic vapor sorption analysis. […] In certain embodiments, Form B comprises less than 0.1% water as determined in a coulometric Karl Fischer (KF) titrator equipped with an oven sample processor set at 225° C.
In certain embodiments, Form C is characterized by dynamic vapor sorption analysis. […] In certain embodiments, Form C comprises less than 0.1% water as determined in a coulometric Karl Fischer (KF) titrator equipped with an oven sample processor set at 225° C.

The format of data set [2] is physicochemical. The text has this: In certain embodiments, the compound for use in the methods is an anhydrous Form C of 2-(4-chlorophenyl)-N-((2-(2,6-dioxopiperidin-3-yl)-1-oxoisoindolin-5-yl)methyl)-2,2-difluoroacetamide.
In certain embodiments, Form C is obtained by slurrying 2-(4-chlorophenyl)-N-((2-(2,6-dioxopiperidin-3-yl)-1-oxoisoindolin-5-yl)methyl)-2,2-difluoroacetamide in certain solvent systems, for example, solvent systems comprising one or more of the following solvents: acetonitril/water, acetone, or ethanol/water for extended period of time.

Data set [3] relates to HL-60 human AML cells. Description: HL-60 IV AML xenograft model, survival study. As to conditions: positive control; p<0.05 vs vehicle. The format is in vivo, SCID mice. The protocol: In this study, Compound 1 antitumor activity in the HL-60 IV AML xenograft model was studies. In this model, HL-60 human AML cells engraft in host BM and internal organs (eg, spleen, liver) and animals develop progressive peripheral leukocytosis. Female severe combined immunodeficiency (SCID) mice were inoculated with HL-60 cells by tail vein injection. To understand the effect of Compound 1 on the xenografted HL-60 cells, animals were dosed intraperitoneal (IP) with vehicle or Compound 1 (0.5, 1, 2.5, and 5 mg/kg) once daily (QD)×5 between Weeks 3 and 4 post-engraftment (AP6516, survival study) or animals were dosed IP twice daily (BID) with vehicle or Compound 1 for 5 or 10 consecutive days (5 mg/kg BID×5 or 2.5 mg/kg, BID×10) between Weeks 6 and 8 post-engraftment (Study AP6982, % human CD33+[hCD33+] cells in BM).
Tumor burden from the peripheral blood of HL-60-bearing animals was assessed by fluorescence-activated cell sorting (FACS) at Week 7 post-tumor cell inoculation. […] Mice from the vehicle control and Compound 1 treatment groups succumbed to disease burden starting on Day 54 for the vehicle control group and between Day 51 and Day 57 for the Compound 1 treatment groups. […] One mouse (1/8) from the 2.5 mg/kg Compound 1-treated group survived to study termination on Day 162.

For the molecule `O=C1CCC(N2Cc3cc(CNC(=O)C(F)(F)c4ccc(Cl)cc4)ccc3C2=O)C(=O)N1` (centres unmarked) [Form A, 2-(4-chlorophenyl)-N-((2-(2,6-dioxopiperidin-3-yl)-1-oxoisoindolin-5-yl)methyl)-2,2-difluoroacetamide], the “water uptake (DVS)” value in data set [1] was “about 1.2 % w/w”. Still for that read-out and setting: for `O=C1CCC(N2Cc3cc(CNC(=O)C(F)(F)c4ccc(Cl)cc4)ccc3C2=O)C(=O)N1` (centres unmarked) [Form B, 2-(4-chlorophenyl)-N-((2-(2,6-dioxopiperidin-3-yl)-1-oxoisoindolin-5-yl)methyl)-2,2-difluoroacetamide] the value was “about 1.4 % w/w”.

Take `O=C1CCC(N2Cc3cc(CNC(=O)C(F)(F)c4ccc(Cl)cc4)ccc3C2=O)C(=O)N1` (centres unmarked) [Form C, 2-(4-chlorophenyl)-N-((2-(2,6-dioxopiperidin-3-yl)-1-oxoisoindolin-5-yl)methyl)-2,2-difluoroacetamide]: the “thermodynamic stability among the crystal forms” value in data set [2] was “most thermodynamically stable anhydrate”. Moreover, the “water uptake (DVS)” value in data set [1] is on record as “about 0.6 % w/w”. `Nc1nc(F)nc2c1ncn2[C@@H]1O[C@H](CO)[C@@H](O)[C@@H]1O` [fludarabine, reference compound]: in data set [3], the median survival worked out at 76 days.
